Source: US6733995B2, “Cathepsin L, its prepro form and the corresponding propeptide from ciliates” (Nutrinova Nutrition Specialties & Food Ingredients GmbH, priority 1996, dated 2004)
Non-standard residues stand in square brackets, D forms with d. Residues, ends and D or L forms follow the SMILES beside them. *: point of attachment. Sta = CC(C)C[C@H](N)[C@@H](O)CC(=O)O; Isovaleryl = CC(C)CC(=O)*

Target: T1, Paramecium cathepsin L isozymes (30 kDa and 33 kDa) (Paramecium tetraurelia, UniProt Q94714)
T1 construct: identical enzyme proteins were involved, with the proteins possibly only being processed differently; from tissue; host or cells: Paramecium tetraurelia mass cultures (cell homogenate)
T1 sequence (Q94714 110-314): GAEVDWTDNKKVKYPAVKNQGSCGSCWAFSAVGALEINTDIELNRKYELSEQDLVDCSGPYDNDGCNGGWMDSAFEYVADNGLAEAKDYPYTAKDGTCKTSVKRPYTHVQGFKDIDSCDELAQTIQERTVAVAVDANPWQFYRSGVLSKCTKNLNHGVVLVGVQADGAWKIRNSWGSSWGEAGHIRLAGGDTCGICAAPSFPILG
Assay: Effect of class-specific protease inhibitors on the purified Paramecium proteases (cathepsin L assay)
Type: biochemical
Conditions: 32P phosphorylase a as substrate
Protocol: ^32P-Phosphorylase a (approx. 5×10^4 cpm/min) was used as substrate. A test mixture (30 μl) contained 10 μM substrate, 12 mM Tris/HCl (pH 7.0), 50 μM EDTA, 10 mM 2-mercaptoethanol, 5 mM caffeine and 6.7 μg of BSA. The reaction was stopped, after incubating at 30° C. for 10 minutes, by adding 200 μl of trichloroacetic acid (20% w/v). The radioactivity of the non-precipitable peptides was determined in the supernatant following centrifugation. One unit of enzyme activity corresponds to the quantity which liberates 1 μmol of soluble ^32P-phosphopeptide/min.
All the purification steps were carried out at 4° C. The cells were homogenized in 50 mM Tris/HCl (pH 7.0), 5 mM EDTA using a French press. Cell debris were removed by centrifugation (23,000×g, 60 min; 100,000×g, 60 min). The supernatant was loaded onto a DEAE Sepharose® column which was equilibrated with 20 mM Tris/HCl (pH 7.0). About half the protease activity eluted with the flowthrough. The column was washed with 250 mM NaCl. The remaining protease activity was eluted with 450 mM KCl. After that, the active fractions were purified through a Sephacryl® S-100 HR column. The protease eluted at approximately 27 kDa. The pooled active fractions were subsequently loaded onto a mono Q column. Elution was carried out using a linear gradient (60 ml of from 100 to 350 mM NaCl). Two active proteases (30 kDa and 33 kDa) were separated in this step. Purity was examined by means of SDS-PAGE. When using ^32P phosphorylase a as substrate, the pH optimum of the two isozymes was 6.5; the temperature optimum was 56° C.

Compound | effect of inhibitor on protease activity
O=C(O)CN(CCN(CC(=O)O)CC(=O)O)CC(=O)O [EDTA] | no inhibitory effect
Cc1ccc(S(=O)(=O)NC(CCCCN)C(=O)CCl)cc1 (stereo not drawn) [TLCK] | reduced the activity drastically
CC(=O)N[C@@H](CC(C)C)C(=O)N[C@@H](CC(C)C)C(=O)N[C@H](C=O)CCCNC(=N)N [leupeptin] | reduced the activity drastically
CC(C)CC(=O)N[C@H](C(=O)N[C@H](C(=O)N[C@@H](CC(C)C)[C@@H](O)CC(=O)N[C@@H](C)C(=O)N[C@@H](CC(C)C)[C@@H](O)CC(=O)O)C(C)C)C(C)C [pepstatin] (Isovaleryl-VV[Sta]A[Sta]-OH) | no inhibitory effect
aprotinin | no inhibitory effect
cystatin | reduced the activity drastically
